Reference: paper PMC9117149, “USP14-regulated allostery of the human proteasome by time-resolved cryo-EM” (Nature, 2022)
Numbered stars: 1 amine (or outer) side, 2 acyl side, 3 side chain; on linkers, the order of the positions; unused ones are H or OH. Peptide text beside a SMILES is read from it. * marks the point of attachment. AMC = Cc1cc(=O)oc2cc(N*)ccc12; Suc = O=C(CCC(=O)[*:2])[*:1]

Experiments:
[1] = system: T1, human 26S proteasome, AAA-ATPase motor (RPT1-RPT6); conditions: 0.5 mM ATP, 5 mM MgCl2, pH 7.5, 37 °C, with 300 nM Ubn-Sic1PY and RPN13; USP14-free
T1 construct: gene PSMC2

[2] = target: T2, human 26S proteasome (peptidase activity) (Homo sapiens, UniProt P28074); assay: AMC fluorescence; format: biochemical; conditions: 10 μM substrate, 0.1 mM ATP, 0.5 mM MgCl2, 100 mM KCl, pH 7.5, 37 °C; USP14-free (also with USP14 variants)
T2 construct: gene PSMB5; 20S core particle; with Proteasome subunit beta type-1; Proteasome subunit beta type-2; Proteasome subunit beta type-3; Proteasome subunit beta type-4; Proteasome subunit beta type-6; Proteasome subunit beta type-7
T2 sequence (P28074 60-263): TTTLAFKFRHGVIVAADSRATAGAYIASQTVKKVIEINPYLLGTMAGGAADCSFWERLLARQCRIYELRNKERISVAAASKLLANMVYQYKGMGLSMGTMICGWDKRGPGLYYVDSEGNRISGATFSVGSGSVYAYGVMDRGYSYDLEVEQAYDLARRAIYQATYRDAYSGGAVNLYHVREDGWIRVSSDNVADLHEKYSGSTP

T1 sequence (P35998 2-433): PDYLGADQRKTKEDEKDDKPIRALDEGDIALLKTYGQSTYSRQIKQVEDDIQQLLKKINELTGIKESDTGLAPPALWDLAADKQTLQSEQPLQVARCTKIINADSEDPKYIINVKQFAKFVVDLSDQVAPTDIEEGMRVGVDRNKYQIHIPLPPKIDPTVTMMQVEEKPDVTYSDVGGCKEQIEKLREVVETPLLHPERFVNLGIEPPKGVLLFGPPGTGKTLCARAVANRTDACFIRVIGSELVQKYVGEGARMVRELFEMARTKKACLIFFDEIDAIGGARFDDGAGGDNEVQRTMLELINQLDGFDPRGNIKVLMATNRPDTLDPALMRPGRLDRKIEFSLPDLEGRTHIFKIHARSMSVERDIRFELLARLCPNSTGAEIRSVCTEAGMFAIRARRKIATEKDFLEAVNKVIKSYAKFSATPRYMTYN
T1 sequence (P62191 2-440, further chain): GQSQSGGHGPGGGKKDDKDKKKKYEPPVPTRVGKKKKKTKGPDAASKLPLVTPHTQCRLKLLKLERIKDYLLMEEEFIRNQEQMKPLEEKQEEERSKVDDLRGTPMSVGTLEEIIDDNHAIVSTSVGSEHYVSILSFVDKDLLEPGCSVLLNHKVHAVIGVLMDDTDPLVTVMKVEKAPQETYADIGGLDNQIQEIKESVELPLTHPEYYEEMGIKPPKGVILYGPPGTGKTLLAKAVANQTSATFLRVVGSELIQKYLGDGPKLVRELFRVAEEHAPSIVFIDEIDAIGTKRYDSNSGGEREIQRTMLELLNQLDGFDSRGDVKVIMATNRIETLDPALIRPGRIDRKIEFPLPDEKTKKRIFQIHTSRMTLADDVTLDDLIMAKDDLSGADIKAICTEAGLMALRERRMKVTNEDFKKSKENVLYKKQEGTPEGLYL
T1 sequence (P43686 whole entry, further chain): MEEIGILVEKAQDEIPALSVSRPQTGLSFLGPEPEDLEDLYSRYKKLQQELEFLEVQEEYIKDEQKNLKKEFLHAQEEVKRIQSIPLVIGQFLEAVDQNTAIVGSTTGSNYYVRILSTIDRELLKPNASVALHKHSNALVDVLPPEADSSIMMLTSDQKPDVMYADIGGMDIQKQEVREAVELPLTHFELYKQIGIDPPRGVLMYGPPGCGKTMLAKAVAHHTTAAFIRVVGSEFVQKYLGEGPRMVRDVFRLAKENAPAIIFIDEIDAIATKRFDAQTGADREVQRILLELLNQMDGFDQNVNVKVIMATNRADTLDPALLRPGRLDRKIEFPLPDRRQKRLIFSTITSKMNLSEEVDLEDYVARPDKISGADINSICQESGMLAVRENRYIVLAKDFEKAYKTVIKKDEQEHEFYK
T1 sequence (P62333 whole entry, further chain): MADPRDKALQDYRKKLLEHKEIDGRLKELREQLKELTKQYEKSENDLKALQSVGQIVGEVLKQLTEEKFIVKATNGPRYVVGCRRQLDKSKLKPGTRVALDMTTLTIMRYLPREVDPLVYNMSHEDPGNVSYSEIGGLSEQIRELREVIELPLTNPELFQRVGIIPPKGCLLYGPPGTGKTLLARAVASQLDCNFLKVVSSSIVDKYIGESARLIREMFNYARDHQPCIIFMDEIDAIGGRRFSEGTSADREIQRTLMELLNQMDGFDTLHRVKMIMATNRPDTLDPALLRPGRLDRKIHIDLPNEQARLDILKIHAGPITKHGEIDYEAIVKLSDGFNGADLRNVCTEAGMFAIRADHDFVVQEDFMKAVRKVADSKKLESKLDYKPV
T1 sequence (P17980 whole entry, further chain): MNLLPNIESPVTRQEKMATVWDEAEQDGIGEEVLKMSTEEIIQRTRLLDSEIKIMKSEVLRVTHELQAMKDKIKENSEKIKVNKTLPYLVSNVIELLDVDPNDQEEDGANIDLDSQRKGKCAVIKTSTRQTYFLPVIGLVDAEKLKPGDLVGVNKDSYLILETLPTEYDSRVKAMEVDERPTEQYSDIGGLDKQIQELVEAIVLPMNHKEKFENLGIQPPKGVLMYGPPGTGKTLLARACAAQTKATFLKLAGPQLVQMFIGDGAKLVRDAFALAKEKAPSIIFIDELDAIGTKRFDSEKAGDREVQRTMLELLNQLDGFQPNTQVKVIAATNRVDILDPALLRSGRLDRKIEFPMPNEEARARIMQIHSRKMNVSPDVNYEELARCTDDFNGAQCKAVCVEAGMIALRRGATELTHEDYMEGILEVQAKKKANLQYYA
T1 sequence (P62195 2-406, further chain): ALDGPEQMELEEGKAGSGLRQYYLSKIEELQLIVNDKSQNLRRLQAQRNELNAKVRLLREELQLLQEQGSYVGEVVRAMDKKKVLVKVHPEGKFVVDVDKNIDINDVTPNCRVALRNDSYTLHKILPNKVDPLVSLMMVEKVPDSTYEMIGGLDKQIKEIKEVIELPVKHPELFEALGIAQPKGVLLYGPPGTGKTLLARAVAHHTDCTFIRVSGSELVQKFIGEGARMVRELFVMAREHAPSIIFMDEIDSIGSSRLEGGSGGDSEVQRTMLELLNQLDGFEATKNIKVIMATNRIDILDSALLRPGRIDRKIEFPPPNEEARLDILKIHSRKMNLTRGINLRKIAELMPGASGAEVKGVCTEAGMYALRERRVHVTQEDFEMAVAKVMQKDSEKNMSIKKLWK

Structure (SMILES) | malachite green phosphate release [1] | AMC fluorescence [2]
Nc1ncnc2c1ncn2[C@@H]1O[C@H](COP(=O)(O)OP(=O)(O)OP(=O)(O)O)[C@@H](O)[C@H]1O [ATP] | ATPase activity was quantified using malachite green phosphate assay kits | –
Cc1cc(=O)oc2cc(NC(=O)[C@H](Cc3ccc(O)cc3)NC(=O)[C@@H](NC(=O)[C@H](CC(C)C)NC(=O)[C@H](CC(C)C)NC(=O)CCC(=O)O)C(C)C)ccc12 [Suc-LLVY-AMC] (Suc-LLVY-{AMC}) | – | Peptide hydrolysis by the human proteasomes was measured using fluorogenic substrate Suc-LLVY-AMC
